Assay results taken from US20220380319A1 (Bial - R&D Investments, S.A., priority 2019, published 2022).
Converted amounts (≈) assume the structure as drawn.

Experiments:
acid ceramidase = target: T1, acid ceramidase (Homo sapiens, UniProt Q13510); experiment: Acid ceramidase inhibition, biochemical fluorescent assay with cell lysates overexpressing acid ceramidase, substrate Rbm14-12; settings: substrate Rbm14-12 6.3 μM, pH 4.5
T1 construct: Cell lysates overexpressing acid ceramidase were used as the enzyme source; expressed in transfected cells
T1 sequence (Q13510 22-395): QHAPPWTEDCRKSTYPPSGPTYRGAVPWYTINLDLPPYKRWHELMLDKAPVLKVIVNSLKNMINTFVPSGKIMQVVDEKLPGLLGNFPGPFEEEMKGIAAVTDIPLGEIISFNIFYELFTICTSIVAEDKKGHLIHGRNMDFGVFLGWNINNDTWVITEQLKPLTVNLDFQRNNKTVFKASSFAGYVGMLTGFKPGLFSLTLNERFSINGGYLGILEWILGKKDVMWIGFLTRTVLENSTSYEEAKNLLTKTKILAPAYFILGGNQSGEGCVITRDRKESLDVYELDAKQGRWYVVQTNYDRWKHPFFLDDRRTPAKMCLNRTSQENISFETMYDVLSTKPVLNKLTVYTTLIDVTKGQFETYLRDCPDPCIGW
Method in brief: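 Lysate of cells overexpressing acid ceramidase (10 μg protein) preincubated with compound dose series 1 hr at RT in 25 mM NaAC, 100 mM NaCl, pH 4.5, then reacted 1 hr with 6.3 μM Rbm14-12. Stopped with NaIO4/glycine buffer pH 10.6, fluorescence ex360/em446; IC50 by four-parameter fit.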

[1] = Compound solubility in water

IC50 (acid ceramidase) [nM] | solubility [1] [µg/mL] | SMILES
< 200 | 27 (≈ 69 µM) | C[C@H](CCNC(=O)n1cnc2c(N3CCN(C)CC3)cccc21)c1ccccc1 [Example 253b, (R)-4-(4-methylpiperazin-1-yl)-N-(3-phenylbutyl)-1H-benzo[d]imidazole-1-carboxamide]
< 200 | 20 (≈ 48.8 µM) | CN1CCN(c2cccc3c2ncn3C(=O)NCCCC2(C(F)(F)F)CC2)CC1 [Example 254, 4-(4-Methylpiperazin-1-yl)-N-(3-(1-(trifluoromethyl)cyclopropyl)propyl)-1H-benzo[d]imidazole-1-carboxamide]
200 to 1000 | 35 (≈ 94.8 µM) | CN1CCN(c2cccc3c2ncn3C(=O)NCCCC(F)(F)F)CC1 [Example 255, 4-(4-Methylpiperazin-1-yl)-N-(4,4,4-trifluorobutyl)-1H-benzo[d]imidazole-1-carboxamide]
200 to 1000 | 24 (≈ 61.3 µM) | CN1CCN(c2cccc3c2ncn3C(=O)NCC2CCC(F)(F)CC2)CC1 [Example 256, N-((4,4-Difluorocyclohexyl)methyl)-4-(4-methylpiperazin-1-yl)-1H-benzo[d]imidazole-1-carboxamide]
< 200 | 19 (≈ 50.1 µM) | CN1CCN(c2cccc3c2ncn3C(=O)NCCOc2ccccc2)CC1 [Example 257, 4-(4-Methylpiperazin-1-yl)-N-(2-phenoxyethyl)-1H-benzo[d]imidazole-1-carboxamide]
< 200 | 34 (≈ 86.9 µM) | CN1CCN(c2cccc3c2ncn3C(=O)NCCC2CCC(F)(F)C2)CC1 (stereo not shown) [Example 258, N-(2-(3,3-Difluorocyclopentyl)ethyl)-4-(4-methylpiperazin-1-yl)-1H-benzo[d]imidazole-1-carboxamide]
200 to 1000 | 21 (≈ 53.6 µM) | CN1CCN(c2cccc3c2ncn3C(=O)NCCC2CCCC2(F)F)CC1 (stereo not shown) [Example 259, N-(2-(2,2-Difluorocyclopentyl)ethyl)-4-(4-methylpiperazin-1-yl)-1H-benzo[d]imidazole-1-carboxamide]
200 to 1000 | 31 (≈ 79.2 µM) | CN1CCN(c2cccc3c2ncn3C(=O)NCCCC2CC(F)(F)C2)CC1 [Example 260, N-(3-(3,3-Difluorocyclobutyl)propyl)-4-(4-methylpiperazin-1-yl)-1H-benzo[d]imidazole-1-carboxamide]
< 200 | 26 (≈ 69.1 µM) | CCN1CCC(c2cccc3c2ncn3C(=O)NCCCc2ccccc2)C1 (stereo not shown) [Example 261, 4-(1-Ethylpyrrolidin-3-yl)-N-(3-phenylpropyl)-1H-benzo[d]imidazole-1-carboxamide]
< 200 | 21 (≈ 55.8 µM) | O=C(NCCCc1ccccc1)n1cnc2c(CCCN3CCC3)cccc21 [Example 262, 4-(3-(Azetidin-1-yl)propyl)-N-(3-phenylpropyl)-1H-benzo[d]imidazole-1-carboxamide]
< 200 | 25 (≈ 63.9 µM) | CC1(N)CCN(c2cccc3c2ncn3C(=O)NCCCc2ccccc2)CC1 [Example 263, 4-(4-Amino-4-methylpiperidin-1-yl)-N-(3-phenylpropyl)-1H-benzo[d]imidazole-1-carboxamide]
< 200 | 21 (≈ 53.6 µM) | CN(C)C1CCN(c2cccc3c2ncn3C(=O)NCCCc2ccccc2)C1 (stereo not shown) [Example 264, 4-(3-(Dimethylamino)pyrrolidin-1-yl)-N-(3-phenylpropyl)-1H-benzo[d]imidazole-1-carboxamide]
< 200 | 27 (≈ 69.3 µM) | O=C(NCCCc1ccccc1)n1cnc2c(N3CC4CNCC4C3)cccc21 (stereo not shown) [Example 265, 4-(Hexahydropyrrolo[3,4-c]pyrrole-2(1H)-yl)-N-(3-phenylpropyl)-1H-benzo[d]imidazole-1-carboxamide]
< 200 | 34 (≈ 84.3 µM) | CN1CC2CN(c3cccc4c3ncn4C(=O)NCCCc3ccccc3)CC2C1 (stereo not shown) [Example 266, 4-(5-Methylhexahydropyrrolo[3,4-c]pyrrol-2(1H)-yl)-N-(3-phenylpropyl)-1H-benzo[d]imidazole-1-carboxamide]
< 200 | 25 (≈ 69 µM) | CN1CCC(c2cccc3c2ncn3C(=O)NCCCc2ccccc2)C1 (stereo not shown) [Example 267, 4-(1-Methylpyrrolidin-3-yl)-N-(3-phenylpropyl)-1H-benzo[d]imidazole-1-carboxamide]
< 200 | 17 (≈ 45 µM) | CNC1CCN(c2cccc3c2ncn3C(=O)NCCCc2ccccc2)C1 (stereo not shown) [Example 268, 4-(3-(Methylamino)pyrrolidin-1-yl)-N-(3-phenylpropyl)-1H-benzo[d]imidazole-1-carboxamide]
< 200 | 21 (≈ 53.6 µM) | CN1CCCN(c2cccc3c2ncn3C(=O)NCCCc2ccccc2)CC1 [Example 269, 4-(4-Methyl-1,4-diazepan-1-yl)-N-(3-phenylpropyl)-1H-benzo[a]imidazole-1-carboxamide]
< 200 | 32 (≈ 91.8 µM) | CN1CC(c2cccc3c2ncn3C(=O)NCCCc2ccccc2)C1 [Example 270, 4-(1-Methylazetidin-3-yl)-N-(3-phenylpropyl)-1H-benzo[d]imidazole-1-carboxamide]
< 200 | 22 (≈ 52.7 µM) | CN1CCC2CCN(c3cccc4c3ncn4C(=O)NCCCc3ccccc3)CC21 (stereo not shown) [Example 271, 4-(1-Methyloctahydro-6H-pyrrolo[2,3-c]pyridin-6-yl)-N-(3-phenylpropyl)-1H-benzo[d]imidazole-1-carboxamide]
< 200 | 21 (≈ 53.6 µM) | CN(C)CC1CN(c2cccc3c2ncn3C(=O)NCCCc2ccccc2)C1 [Example 272, 4-(3-((Dimethylamino)methyl)azetidin-1-yl)-N-(3-phenylpropyl)-1H-benzo[d]imidazole-1-carboxamide]
< 200 | 0.2 (≈ 0.497 µM) | O=C(NCCCc1ccccc1)n1cnc2c(N3CC(C(F)(F)F)C3)cccc21 [Example 273, N-(3-Phenylpropyl)-4-(3-(trifluoromethyl)azetidin-1-yl)-1H-benzo[d]imidazole-1-carboxamide]
< 200 | 15 (≈ 35.9 µM) | O=C1CCC2CN(c3cccc4c3ncn4C(=O)NCCCc3ccccc3)CCN12 (stereo not shown) [Example 275, 4-(6-Oxohexahydropyrrolo[1,2-a]pyrazin-2(1H)-yl)-N-(3-phenylpropyl)-1H-benzo[d]imidazole-1-carboxamide]
< 200 | 28 (≈ 64.7 µM) | CN1CCN(C2CN(c3cccc4c3ncn4C(=O)NCCCc3ccccc3)C2)CC1 [Example 276, 4-(3-(4-Methylpiperazin-1-yl)azetidin-1-yl)-N-(3-phenylpropyl)-1H-benzo[d]imidazole-1-carboxamide]
< 200 | 18 (≈ 44 µM) | CN1CCN(c2cccc3c2ncn3C(=O)NCCCc2ccccc2)CC1CF (stereo not shown) [Example 277, 4-(3-(Fluoromethyl)-4-methylpiperazin-1-yl)-N-(3-phenylpropyl)-1H-benzo[d]imidazole-1-carboxamide]
< 200 | 18 (≈ 43.2 µM) | N#CCCN1CCN(c2cccc3c2ncn3C(=O)NCCCc2ccccc2)CC1 [Example 278, 4-(4-(2-Cyanoethyl)piperazin-1-yl)-N-(3-phenylpropyl)-1H-benzo[d]imidazole-1-carboxamide]
< 200 | 1 (≈ 2.99 µM) | O=C(NCCCc1ccccc1)n1cnc2c(N3CCC3)cccc21 [Example 279, 4-(Azetidin-1-yl)-N-(3-phenylpropyl)-1H-benzo[d]-imidazole-1-carboxamide]
